Measured values published in article PMC10125213 (Journal of Molecular Biology, 2023).

Tests used:
Type in all cases: binding, SARS-CoV-2
Omicron (BA.1) S protein = Omicron (BA.1) S protein (Severe acute respiratory syndrome coronavirus 2, UniProt P0DTC2, A67V/D614G/D796Y/DEL143-145/DEL211-211/DEL69-70/E484A/G142D/G339D/G446S/G496S/H655Y/INS214EPE/K417N/L212I/L981F/N440K/N501Y/N679K/N764K/N856K/N969K/P681H/Q493K/Q498R/Q954H/S371L/S373P/S375F/S477N/T478K/T547K/T95I/Y505H)
BA.4/5 S protein = BA.4/5 S protein (Severe acute respiratory syndrome coronavirus 2, UniProt P0DTC2, A27S/D405N/D614G/D796Y/DEL24-26/DEL69-70/E484A/F486V/G142D/G339D/H655Y/K417N/L452R/N440K/N501Y/N679K/N764K/N969K/P681H/Q498R/Q954H/R408S/S371F/S373P/S375F/S477N/T19I/T376A/T478K/V213G/Y505H)
BA.2 S protein = BA.2 S protein (Severe acute respiratory syndrome coronavirus 2, UniProt P0DTC2, A27S/D405N/D614G/D796Y/DEL24-26/E484A/G142D/G339D/H655Y/K417N/N440K/N501Y/N679K/N764K/N969K/P681H/Q493R/Q498R/Q954H/R408S/S371F/S373P/S375F/S477N/T19I/T376A/T478K/V213G/Y505H)
[1] = tested on: RBM mutant RBD protein derived from BA.2
[2] = target: RBM mutant RBD protein derived from BA.4/5 (Severe acute respiratory syndrome coronavirus 2, UniProt P0DTC2, E484A/F486V/L452R/N440K/N501Y/Q498R/S477N/T478K/Y505H)
Omicron RBD = Omicron RBD (Severe acute respiratory syndrome coronavirus 2, UniProt P0DTC2, E484A/G339D/G446S/G496S/K417N/N440K/N501Y/Q493K/Q498R/S371L/S373P/S375F/S477N/T478K/Y505H)

| SMILES | IC50 (Omicron (BA.1) S protein) [mM] | IC50 (BA.4/5 S protein) [mM] | IC50 (BA.2 S protein) [mM] | sensitivity to TCEP compared to WT protein [1] | sensitivity to TCEP compared to WT protein [2] | inhibition of activity of Omicron RBD (Omicron RBD) [%] |
| --- | --- | --- | --- | --- | --- | --- |
| N[C@@H](CCC(=O)N[C@@H](CS)C(=O)NCC(=O)O)C(=O)O [GSH, reduced glutathione] | < 10 | < 10 | < 10 |  |  |  |
| O=C(O)CCP(CCC(=O)O)CCC(=O)O [TCEP, tris-(2-carboxyethyl)phosphine] |  |  |  | enhanced sensitivities | enhanced sensitivities | > 80 |
